Results reported in US8637493B2, “Methods for treating glioblastoma” (University of Massachusetts, priority 2009, dated 2014).
“And” between values parts separate entries of the source, which are not always exact repeats. Identical values can stand only once.

What was measured:
U373NS [1] = assay: Ex vivo treated cells, subcutaneous xenograft tumor initiation, U373NS; format: in vivo, nude mice; conditions: 3 × 10^6 live cells injected, TMZ 200 μM, DAPT 5 μM
Description: (§1) U87NS and U373NS neurospheres were dissociated and 2.5×10^4 cells/ml were plated in defined media and treated with DMSO, TMZ-only (200 μM), DAPT-only (1 μM or 5 μM), or TMZ+DAPT as described for recovery assays. After 7 days, 3×10^6 live cells were counted using trypan blue and re-suspended in 100 μl PBS. Cells were subcutaneously injected into the flanks of nude mice. Mice were monitored for tumor formation for up to 120 days post-injection and euthanized when tumors reached volumes of 1.5 to 2 cm^3.
as §1, with “U373NS” for “U87NS and U373NS”, “(FIG. 8B and Table 1).” for “as described for recovery assays.”, “cm^3. The control DMSO cells formed palpable tumors in an average of 15 days for 7/7 xenografts, and DAPT-only treated cells formed tumors in an average of 16 days for 7/7 xenografts. […] Palpable tumors formed for 6/7 TMZ-treated U373NS xenografts in an average of 43 days. […] Only 1/7 mice formed a tumor in the TMZ+DAPT U373NS xenografts with an extended latency of 96 days.” for “cm^3.”

GS7-2 = assay: Neurosphere formation / recovery / secondary neurosphere assay, GS7-2; format: cell-based, human
Description: (§2) The effect of chemotherapy on neurosphere formation was assayed in glioma neurosphere cultures. Cultures are treated with a single dose of the agent, e.g., TMZ and multiple doses of a GSI, e.g., DAPT to inhibit the Notch pathway. After the Treatment phase, the number of initial spheres (counted about 7 days after TMZ treatment) represents the number of proliferating CSC/progenitors (FIG. 1 for schematic). Recovery (counted 14 days after TMZ treatment) includes enlargement of the initial spheres and new spheres formed when CSC/progenitor cells quiescent as a result of chemotherapy resume cell proliferation. […] The cells used included U87NS, a neurosphere culture converted to neurosphere growth in defined medium from U87MG (an old Swedish line that is grown in conventional serum conditions); GS7-2, GS8-26 and GS6-22 primary neurosphere cultures that were obtained from grade IV GBM patient tumor samples and AS5-15, which was obtained from a grade III anaplastic astrocytoma.
(§3) To determine the effects of TMZ plus DAPT neurospheres, cells were plated as previously described (Mihaliak et al., Cancer Letts. 296, 168-177 (2010)). Immediately after plating, cells were treated with DMSO, DAPT-only, LY411,575 (LY)-only TMZ-only, TMZ+DAPT or TMZ+LY. The initial neurospheres were counted on day 7 for the converted cell lines and on day 10 for the slower growing primary lines. Neurosphere recovery was measured on day 14 or 20. The neurospheres were dissociated, re-plated and secondary neurosphere formation was measured on day 21 or 30.
(§4) Neurosphere cultures were dissociated to single cell suspensions by pH dissociation followed by filtration through 40 μm screens. For the neurosphere assay, 3,000 cells/ml of defined medium were seeded in 6-well plates. Immediately after plating, cells were treated with DMSO (Research Organics, Cleveland, Ohio) carrier control, TMZ-only, DAPT-only, or TMZ+DAPT. Additional DAPT was added on days 2 and 4. Neurospheres consisting of 10 or more cells were counted under a light microscope on day 7 for the converted cell lines. Primary lines have a slightly longer doubling time and were counted on day 10. After counting the neurospheres from the initial treatment, 2 ml of fresh defined medium was added to each well. DAPT was also added once more to the DAPT-only and TMZ+DAPT samples, and the cells were incubated for an additional 7 or 10 days. Neurospheres from the recovery period were counted on day 14 or day 20. To analyze secondary neurosphere formation, cells were collected, pelleted and dissociated to a single cell suspension by the pH method. Cells from each well were re-seeded into 6-well plates with 2 ml of defined medium. The number of secondary neurospheres formed by converted cell lines and primary cultures were counted on day 21 or day 30, respectively. All recovery assays were repeated with a minimum of 6 replicate sets of time points.
(§5) For the samples labeled “PRE-treat”, a single dose of DAPT was administered when the cells were plated, and then TMZ was added to the medium 24 hours later. For the “CO-treat” samples, single doses of TMZ and DART were added simultaneously when the cells were plated. Finally, samples labeled “POST-treat” were treated with TMZ, and then DAPT was added 24 hours later.

U87NS cells = assay: Ex vivo treated cells, subcutaneous xenograft tumor initiation, U87NS; format: in vivo, nude mice
Description: U87NS cells were treated in vitro as follows. The cells were dissociated and 2.5×10^4 cells/ml were plated defined media and treated with DMSO, TMZ-only (200 μM), DAPT-only (1 μM or 5 μM), or TMZ+DAPT as described for recovery assays (FIG. 8A and Table 1). After 7 days, 2.5×10^5 live cells were counted using trypan blue and re-suspended in 100 μl PBS and subcutaneously injected into nude mice. Mice were monitored for tumor formation for up to 120 days post-injection and euthanized when tumors reached volumes of 1.5 to 2 cm3. Tumor initiation was observed when a palpable tumor formed. […] Impressively, none of the mice injected with TMZ+DAPT treated cells (0/7 mice) formed tumors, even after 90 days. When a higher number of live U87NS cells (3×10^6) were injected, we saw a similar trend (Table 1). Mice with 3×10^6 cells for U87NS DMSO (2/2 mice) and DAPT-only (2/2 mice) xenografts developed palpable tumors at 3 and 4 days, respectively, and 3/4 mice formed tumors in TMZ-only treated cells with an average latency of 25 days. With this higher number of cells injected, U87NS TMZ+DAPT xenografts formed tumors in only 1/4 mice with a longer latency of 43 days.
as §1

U87NS = assay: Neurosphere formation / recovery / secondary neurosphere assay, U87NS; format: cell-based, human
Description: as §2, §3, §4, §5

U373NS [2] = assay: Neurosphere formation / recovery / secondary neurosphere assay, U373NS; format: cell-based, human
Description: as §2, §3, §4

[3] = 2.5 × 10^5 live cells injected, TMZ 200 μM, DAPT 1 μM
[4] = 10 μM DAPT alone, counted day 7
[5] = low concentrations (1-5 μM) DAPT-only, day 7
[6] = secondary neurospheres divided by recovery neurospheres

SMILES: C[C@H](NC(=O)Cc1cc(F)cc(F)c1)C(=O)N[C@H](C(=O)OC(C)(C)C)c1ccccc1 [DAPT, N-[N-(3,5-difluorophenacetyl)-L-alanyl]-(S)-phenylglycine t-butyl ester]
- Ex vivo Treated Xenograft Average Latency (U373NS [1]): 16 days
- Ex vivo Treated Xenograft Incidence (U373NS [1]): 7/7
- decrease of neurosphere formation compared to DMSO controls (GS7-2; 10 μM DAPT alone, counted day 10): 49%
- inhibition of neurosphere formation (GS7-2; low concentrations (1-5 μM) DAPT-only, day 10): minimal inhibition
- Ex vivo Treated Xenograft Average Latency (U87NS cells; [3]): 14 days
- Ex vivo Treated Xenograft Incidence (U87NS cells; [3]): 7/7
- Ex vivo Treated Xenograft Average Latency (U87NS cells; 3 × 10^6 live cells injected): 4 days
- Ex vivo Treated Xenograft Incidence (U87NS cells; 3 × 10^6 live cells injected): 2/2
- decrease of neurosphere formation compared to DMSO controls (U87NS; [4]): 41%
- inhibition of neurosphere formation (U87NS; [5]): minimal inhibition
- decrease of neurosphere formation compared to DMSO controls (U373NS [2]; [4]): 39%
- inhibition of neurosphere formation (U373NS [2]; [5]): minimal inhibition

SMILES: Cn1nnc2c(C(N)=O)ncn2c1=O [TMZ, temozolomide]
- Ex vivo Treated Xenograft Average Latency (U373NS [1]): 43 days and 45 days
- Ex vivo Treated Xenograft Incidence (U373NS [1]): 6/7
- secondary neurosphere formation relative to DAPT POST-treatment (GS7-2; TMZ-only treatment, P<0.0001): 85.7 fold
- recovery: increase in the number of neurospheres (GS7-2; day 20 relative to day 10, DAPT 1 μM): 1.8 fold
- secondary neurosphere formation, TMZ-only treated culture relative to TMZ+DAPT treated culture (GS7-2; day 30, P<0.001): 45 fold
- average number of cells per neurosphere capable of self-renewal (GS7-2; [6]): 38 cells per neurosphere
- Ex vivo Treated Xenograft Average Latency (U87NS cells; [3]): 32 days
- Ex vivo Treated Xenograft Incidence (U87NS cells; [3]): 6/7
- Ex vivo Treated Xenograft Average Latency (U87NS cells; 3 × 10^6 live cells injected): 25 days
- Ex vivo Treated Xenograft Incidence (U87NS cells; 3 × 10^6 live cells injected): 3/4
- secondary neurosphere formation relative to DAPT POST-treatment (U87NS; TMZ-only treatment, P<0.001): 5.7 fold
- recovery: increase in the number of neurospheres (U87NS; day 14 relative to day 7, TMZ 200 μM, DAPT 1 μM): 2 fold
- secondary neurosphere formation, TMZ-only treated culture relative to TMZ+DAPT treated culture (U87NS; day 21, P<0.0001): 36 fold
- average number of cells per neurosphere capable of self-renewal (U87NS; [6]): 8 cells per neurosphere
- recovery: increase in the number of neurospheres (U373NS [2]; day 14 relative to day 7, TMZ 200 μM, DAPT 5 μM): 1.5 fold
- secondary neurosphere formation, TMZ-only treated culture relative to TMZ+DAPT treated culture (U373NS [2]; day 21, P<0.001): 23 fold
- average number of cells per neurosphere capable of self-renewal (U373NS [2]; [6]): 3 cells per neurosphere
